In the NIST ThermoML archive (doi:10.1016/j.tca.2010.04.025):
Where “and” joins values, the source holds several entries; their conditions need not be identical. Equal entries are not always repeated.

Legend:
[1] = 101 kPa, Liquid; for speed of sound: Linear variable-path acoustic interferometer; for mass density: Pycnometric method
[2] = xn = mol fraction of the nth substance listed; details: 101 kPa, Liquid; for speed of sound: Linear variable-path acoustic interferometer; for mass density: Pycnometric method

CNc1ccccc1 [N-methylaniline]
[1]
Details | mass density [kg/m3] | speed of sound [m/s]
303.15 K | 978.2 | 1548
313.15 K | 969.8 | 1512
323.15 K | 961 | 1477

CCNc1ccccc1 [N-ethylaminobenzene]
[1]
Details | mass density [kg/m3] | speed of sound [m/s]
303.15 K | 951.9 | 1497
313.15 K | 944.3 | 1462
323.15 K | 935.9 | 1431

C1CCOC1 [tetrahydrofuran] + CNc1ccccc1
[2], x1 = 1
Details | mass density [kg/m3] | speed of sound [m/s]
303.15 K | 877.3 | 1256
313.15 K | 867.2 | 1212
323.15 K | 856.6 | 1171

Nc1ccccc1 [aniline]
[1]
Details | mass density [kg/m3] | speed of sound [m/s]
303.15 K | 1012.8 | 1615
313.15 K | 1004.9 | 1583
323.15 K | 998.4 | 1558

Nc1ccccc1 [aniline] + C1CCOC1
[2]
Details | mass density, 303.15 K [kg/m3] | mass density, 313.15 K [kg/m3] | mass density, 323.15 K [kg/m3] | speed of sound, 303.15 K [m/s] | speed of sound, 313.15 K [m/s] | speed of sound, 323.15 K [m/s]
x2 = 0 | 1012.8 | 1004.9 | 998.4 | 1615 | 1583 | 1558
x2 = 0.087 | 1004.4 | 997.5 | 991.5 | 1592 | 1561 | 1537
x2 = 0.1803 | 994.8 | 988.2 | 981.6 | 1565 | 1531 | 1510
x2 = 0.2735 | 984.8 | 978.5 | 971.8 | 1535 | 1500 | 1478
x2 = 0.3573 | 975.4 | 969.4 | 962.4 | 1509 | 1473 | 1450
x2 = 0.4556 | 964.1 | 957.8 | 951.6 | 1476 | 1440 | 1417
x2 = 0.5638 | 950.5 | 943.9 | 937.9 | 1438 | 1402 | 1379
x2 = 0.6708 | 935 | 928.7 | 922.6 | 1393 | 1359 | 1334
x2 = 0.8169 | 910.1 | 904 | 898.5 | 1334 | 1299 | 1268
x2 = 0.8812 | 898.7 | 892.2 | 885 | 1306 | 1267 | 1237

C1CCOC1 [tetrahydrofuran] + CCNc1ccccc1
[2], x1 = 1
Details | mass density [kg/m3] | speed of sound [m/s]
303.15 K | 877.3 | 1256
313.15 K | 867.2 | 1212
323.15 K | 857.1 | 1171

CNc1ccccc1 [N-methylaniline] + C1CCOC1
[2]
Details | mass density, 303.15 K [kg/m3] | mass density, 313.15 K [kg/m3] | mass density, 323.15 K [kg/m3] | speed of sound, 303.15 K [m/s] | speed of sound, 313.15 K [m/s] | speed of sound, 323.15 K [m/s]
x2 = 0 | 978.2 | 969.8 | 961 | 1548 | 1512 | 1477
x2 = 0.0831 | 973.1 | 964.9 | 956.6 | 1528 | 1493 | 1459
x2 = 0.1864 | 966 | 958.3 | 949.9 | 1502 | 1466 | 1433
x2 = 0.2813 | 959.1 | 951.4 | 943.4 | 1478 | 1442 | 1407
x2 = 0.3782 | 951.5 | 944 | 935.8 | 1453 | 1416 | 1381
x2 = 0.4714 | 943.5 | 936 | 927.4 | 1428 | 1390 | 1354
x2 = 0.5746 | 933.2 | 926 | 916.9 | 1396 | 1358 | 1322
x2 = 0.6956 | 919.4 | 912.2 | 902.6 | 1357 | 1318 | 1282
x2 = 0.7823 | 908.2 | 900.8 | 891.1 | 1329 | 1289 | 1252
x2 = 0.8882 | 893.4 | 885.7 | 875.8 | 1293 | 1252 | 1213

C1CCOC1 [tetrahydrofuran]
[1]
Details | mass density | speed of sound [m/s]
303.15 K | 877.3 kg/m3 | 1256
313.15 K | 867.2 kg/m3 | 1212
323.15 K | 856.6 kg/m3 and 857.1 kg/m3 | 1171

C1CCOC1 [tetrahydrofuran] + Nc1ccccc1
[2], x1 = 1
Details | mass density [kg/m3] | speed of sound [m/s]
303.15 K | 877.3 | 1256
313.15 K | 867.2 | 1212
323.15 K | 856.6 | 1171

CCNc1ccccc1 [N-ethylaminobenzene] + C1CCOC1
[2]
Details | mass density, 303.15 K [kg/m3] | mass density, 313.15 K [kg/m3] | mass density, 323.15 K [kg/m3] | speed of sound, 303.15 K [m/s] | speed of sound, 313.15 K [m/s] | speed of sound, 323.15 K [m/s]
x2 = 0 | 951.9 | 944.3 | 935.9 | 1497 | 1462 | 1431
x2 = 0.0904 | 947.8 | 940.8 | 932.8 | 1482 | 1450 | 1420
x2 = 0.1892 | 943.8 | 936.7 | 929.1 | 1469 | 1435 | 1404
x2 = 0.2849 | 939.5 | 932.4 | 925.2 | 1452 | 1418 | 1388
x2 = 0.3819 | 934.5 | 927.6 | 920.6 | 1433 | 1399 | 1367
x2 = 0.4674 | 929.3 | 922.6 | 915.7 | 1414 | 1379 | 1346
x2 = 0.5758 | 921.9 | 915.2 | 908.1 | 1387 | 1351 | 1317
x2 = 0.6778 | 913.1 | 906.4 | 899.5 | 1360 | 1323 | 1286
x2 = 0.7876 | 902.1 | 895.4 | 887.7 | 1326 | 1287 | 1250
x2 = 0.8903 | 890.8 | 882.8 | 874.2 | 1291 | 1251 | 1215
